Earlier results as cited in patent publication US20070082064A1, “Nutritional or dietary supplement for the treatment of macular degeneration” (priority 2005, published 2007).

## vitamin E
Daily dose of 200 IU per day
  risk of death: no increased risk of death
Daily doses of 400 IU or more, meta-analysis of 19 trials, more than 136,000 patients
  risk of death higher than among those taking placebos: about 10%
